Where “and” joins values, the source holds several entries; their conditions need not be identical. Equal entries are not always repeated. Numbers after ± are expanded uncertainties.
Key:
[1] = for viscosity / mass density: 101 kPa, Liquid; for viscosity: Capillary tube (Ostwald / Ubbelohde) method; for mass density: Vibrating tube method
[2] = refractive index (Na D-line) (dimensionless); details: 101 kPa, Liquid, Standard Abbe refractometry
[3] = xn = mol fraction of the nth substance listed; details: for viscosity / mass density: 101 kPa, Liquid; for viscosity: Capillary tube (Ostwald / Ubbelohde) method; for mass density: Vibrating tube method
[4] = refractive index (Na D-line) (dimensionless); xn = mol fraction of the nth substance listed; details: 101 kPa, Liquid, Standard Abbe refractometry, x2 = 0

CC(=O)[O-].CCn1cc[n+](C)c1 [1-ethyl-3-methylimidazolium acetate]
[1], Wilhelmy plates
Details	surface tension liquid-gas
278.2 K	48.1 ± 0.8 mN/m
288.15 K	47.7 ± 0.8 mN/m
298.15 K	47.1 ± 0.8 mN/m
308.15 K	46.6 ± 0.8 mN/m and 46.1 ± 0.8 mN/m
318.15 K	46.1 ± 0.8 mN/m
328.15 K	45.9 ± 0.8 mN/m
338.15 K	45.4 ± 0.8 mN/m
348.15 K	45.1 ± 0.8 mN/m

Details	mass density, [1] [kg/m3]	refractive index, [2]	viscosity, [1] [mPa·s]
288.15 K	1105.2 ± 1.4	1.50285 ± 0.00053	283.8 ± 8.9
298.15 K	1099.03 ± 1.4	1.50069 ± 0.00053	139 ± 3.1
308.15 K	1092.93 ± 1.3	1.49803 ± 0.00053	77.32 ± 1.3
318.15 K	1086.86 ± 1.3	1.49527 ± 0.00053	47.37 ± 0.73
328.15 K	1080.82 ± 1.3	1.49266 ± 0.00053	31.29 ± 0.48
338.15 K	1074.83 ± 1.3	1.48995 ± 0.00053	21.85 ± 0.33
348.15 K	1068.88 ± 1.3	1.48721 ± 0.00053	16.01 ± 0.24

CC(=O)[O-].CCn1cc[n+](C)c1 [1-ethyl-3-methylimidazolium acetate] + CO
surface tension liquid-gas [mN/m], [3], Wilhelmy plate
Details	x1 = 0.1	x1 = 0.2	x1 = 0.3	x1 = 0.4	x1 = 0.5	x1 = 0.6	x1 = 0.6999	x1 = 0.8003	x1 = 0.9003	x1 = 1
278.2 K	28.5 ± 0.6	32.7 ± 0.6	35.9 ± 0.6	38.4 ± 0.6	40.3 ± 0.7	42.1 ± 0.7	44.3 ± 0.7	45.9 ± 0.7	47.6 ± 0.7	48.1 ± 0.8
288.2 K	28.1 ± 0.6	32.1 ± 0.6	35.3 ± 0.6	38 ± 0.6	40 ± 0.7	41.6 ± 0.7	43.8 ± 0.7	45.1 ± 0.7	46.9 ± 0.7	47.7 ± 0.8
298.2 K	27.5 ± 0.6	31.6 ± 0.6	35 ± 0.6	37.5 ± 0.6	39.6 ± 0.7	41.1 ± 0.7	43.3 ± 0.7	44.7 ± 0.7	46.4 ± 0.7	47.1 ± 0.8
308.2 K	26.8 ± 0.6	31.1 ± 0.6	34.5 ± 0.6	37.1 ± 0.6	39 ± 0.7	40.8 ± 0.7	42.8 ± 0.7	44.2 ± 0.7	45.9 ± 0.7	46.6 ± 0.8
318.2 K	26.3 ± 0.6	30.6 ± 0.6	33.9 ± 0.6	36.5 ± 0.6	38.7 ± 0.6	40.4 ± 0.7	42.4 ± 0.7	43.9 ± 0.7	45.3 ± 0.7	46.1 ± 0.8

CO [methanol]
[1], Wilhelmy plate
Details	surface tension liquid-gas [mN/m]
278.2 K	23.8 ± 0.6
288.2 K	23.6 ± 0.6
298.2 K	22.7 ± 0.6
308.2 K	21.9 ± 0.6
318.2 K	21 ± 0.6

CO [methanol] + CC(=O)[O-].CCn1cc[n+](C)c1
[3], Wilhelmy plate, x2 = 0
Details	surface tension liquid-gas [mN/m]
278.2 K	23.8 ± 0.6
288.2 K	23.6 ± 0.6
298.2 K	22.7 ± 0.6
308.2 K	21.9 ± 0.6
318.2 K	21 ± 0.6

CCCO [propan-1-ol]
[1], Wilhelmy plates
Details	surface tension liquid-gas [mN/m]
288.15 K	23.9 ± 0.6
298.15 K	23.4 ± 0.6
308.15 K	22.4 ± 0.6
318.15 K	22 ± 0.6
328.15 K	20.9 ± 0.6
338.15 K	19.7 ± 0.6
348.15 K	19 ± 0.6

Details	mass density, [1] [kg/m3]	refractive index, [2]	viscosity, [1] [mPa·s]
288.15 K	807.55 ± 0.14	1.38694 ± 0.00035	2.506 ± 0.029
298.15 K	799.56 ± 0.14	1.38303 ± 0.00035	1.952 ± 0.023
308.15 K	791.46 ± 0.15	1.37914 ± 0.00035	1.545 ± 0.018
318.15 K	783.2 ± 0.15	1.375 ± 0.00035	1.238 ± 0.014
328.15 K	774.72 ± 0.16	1.37075 ± 0.00035	1.006 ± 0.012
338.15 K	765.98 ± 0.16	1.36667 ± 0.00035	0.824 ± 0.01
348.15 K	756.91 ± 0.16	1.36201 ± 0.00035	0.684 ± 0.008

CCCO [propan-1-ol] + CC(=O)[O-].CCn1cc[n+](C)c1
[4]
Details	refractive index
288.15 K	1.38694 ± 0.00035
298.15 K	1.38303 ± 0.00035
308.15 K	1.37914 ± 0.00035
318.15 K	1.375 ± 0.00035
328.15 K	1.37075 ± 0.00035
338.15 K	1.36667 ± 0.00035
348.15 K	1.36201 ± 0.00035

[3], Wilhelmy plates, x2 = 0
Details	surface tension liquid-gas [mN/m]
288.15 K	23.9 ± 0.6
298.15 K	23.4 ± 0.6
308.15 K	22.4 ± 0.6
318.15 K	22 ± 0.6
328.15 K	20.9 ± 0.6
338.15 K	19.7 ± 0.6
348.15 K	19 ± 0.6

[3], x2 = 0
Details	mass density [kg/m3]	viscosity [mPa·s]
288.15 K	807.55 ± 0.14	2.506 ± 0.029
298.15 K	799.56 ± 0.14	1.952 ± 0.023
308.15 K	791.46 ± 0.15	1.545 ± 0.018
318.15 K	783.2 ± 0.15	1.238 ± 0.014
328.15 K	774.72 ± 0.16	1.006 ± 0.012
338.15 K	765.98 ± 0.16	0.824 ± 0.01
348.15 K	756.91 ± 0.16	0.684 ± 0.008

CC(C)O [propan-2-ol]
[1], Wilhelmy plates
Details	surface tension liquid-gas [mN/m]
288.15 K	21.6 ± 0.6
298.15 K	21.2 ± 0.6
308.15 K	20.5 ± 0.6
318.15 K	19.6 ± 0.6
328.15 K	18.7 ± 0.6
338.15 K	17.4 ± 0.6

Details	mass density, [1] [kg/m3]	refractive index, [2]	viscosity, [1] [mPa·s]
288.15 K	789.18 ± 0.19	1.37933 ± 0.00036	2.752 ± 0.033
298.15 K	780.84 ± 0.19	1.37517 ± 0.00036	2.018 ± 0.024
308.15 K	772.23 ± 0.19	1.37093 ± 0.00036	1.507 ± 0.018
318.15 K	763.27 ± 0.2	1.36643 ± 0.00036	1.15 ± 0.014
328.15 K	753.89 ± 0.2	1.36173 ± 0.00036	0.895 ± 0.011
338.15 K	744.02 ± 0.2	1.35682 ± 0.00036	0.704 ± 0.009

CC(C)O [propan-2-ol] + CC(=O)[O-].CCn1cc[n+](C)c1
[4]
Details	refractive index
288.15 K	1.37933 ± 0.004
298.15 K	1.37517 ± 0.004
308.15 K	1.37093 ± 0.004
318.15 K	1.36643 ± 0.004
328.15 K	1.36173 ± 0.004
338.15 K	1.35682 ± 0.004

[3], Wilhelmy plates, x2 = 0
Details	surface tension liquid-gas [mN/m]
288.15 K	21.6 ± 0.6
298.15 K	21.2 ± 0.6
308.15 K	20.5 ± 0.6
318.15 K	19.6 ± 0.6
328.15 K	18.7 ± 0.6
338.15 K	17.4 ± 0.6

[3], x2 = 0
Details	mass density [kg/m3]	viscosity [mPa·s]
288.15 K	789.18 ± 0.19	2.752 ± 0.033
298.15 K	780.84 ± 0.19	2.018 ± 0.024
308.15 K	772.23 ± 0.19	1.507 ± 0.018
318.15 K	763.27 ± 0.2	1.15 ± 0.014
328.15 K	753.89 ± 0.2	0.895 ± 0.011
338.15 K	744.02 ± 0.2	0.704 ± 0.009

From the NIST ThermoML archive (doi:10.1021/acs.jced.5b01023)
